Data: patent US20240109914A1, “IMIDAZOTHIAZOLE COMPOUNDS AND ANALOGS THEREOF AND METHODS FOR TREATING NEMATODE INFECTIONS IN PLANTS” (The Governing Council of The University of Toronto, priority 2021, published 2024)
Where two headings read alike, the source gives them in different places.

Key:
C. elegans = C. elegans dose-response (viability, minimum lethal concentration); type: in vivo, Caenorhabditis elegans; conditions: Caenorhabditis elegans, 72 h, L1 worms, 3 days at 20° C.
Experimental: Forty microliters of an HB101 E. coli bacterial suspension in liquid NGM (nematode growth media—see ref. 42 for the recipe) was added to each well of a 96-well flat-bottom culture plate, after which approximately 25 synchronized L1 worms, in 10 μl of M9 buffer (see ref. 43 for the recipe), were added to each well. The synchronized L1 worms were obtained from an embryo preparation performed the previous day (see ref. 43 for the protocol). For the L1 assays, 0.5 μl of test compound solution (or DMSO alone) was immediately added to the wells using a multichannel pipette; the final DMSO concentration is 1% (v/v). The worms were incubated for 3 days at 20° C. and the number of viable animals was counted.
At least three biological replicates were performed for each dose-response assay. For each biological replicate, two technical replicates were performed and the numbers of viable animals for each technical replicate were combined (i.e. ˜ 50 worms assayed per concentration). The number of viable worms at each concentration was divided by the corresponding DMSO control value to give the “relative viability” for each concentration. The “relative viability” values were then averaged across the biological replicates. Minimum lethal concentration was defined as the lowest concentration at which at least 20% of worms die.

M. hapla eggs = assay: Meloidogyne hapla in vitro egg hatch assay; type: in vivo; conditions: 45 μM; for Number of Hatched Eggs: 8 days at room temperature, about 90 eggs per well, tested once; for Number of Hatched Eggs z-score: 8 days, z-score vs 8 untreated DMSO wells
Experimental: The M. hapla were originally obtained from a soil sample of muck soil from Ste-Clotilde, Quebec, Canada. Using tweezers, egg masses were carefully removed from root material from infested carrot roots. Eggs were liberated from the egg masses using a mild sodium hypochlorite bleaching protocol, whereby egg masses were bleached with a 10% commercial bleach (sodium hypochlorite) solution for 4 minutes with vigorous shaking, and then washed 5 times with deionized water. 50 μL of deionized water was added to each well of two 96-well polystyrene culture plates, and 0.5 μL of chemical (or DMSO alone) was added to each well. Approximately 90 eggs were added to each well in 49.5 ul of deionized water. The plates were sealed with parafilm and incubated for 8 days at room temperature without shaking in a Tupperware box filled with wet paper towels. After the 8-day incubation, the number of hatched eggs was counted for each treatment and for the untreated controls. Each chemical treatment was tested only once. 8 separate untreated DMSO controls were included in the experiment. The z-score for each treatment was calculated using the mean and standard deviation of the untreated DMSO control wells.

M. incognita = assay: Meloidogyne incognita infectivity assay (soil, tomato roots); type: in vivo; conditions: Meloidogyne incognita, 1344 h, 45 μM in soil, 8 weeks, eggs per mg root relative to DMSO control, read-out: % effectiveness at inhibiting reproduction of M. incognita
Description: An M. incognita population originally collected from grape (Vitis vinifera) in Parlier, California, was used for all experiments, and they were maintained on tomato plants (Solanum lycopersicum ‘Rutgers’) as previously described^47. Infective J2 juveniles were collected as described in ref. 47.

tomato plants = assay: Root mass of tomato plants in the soil infectivity assay; conditions: 45 μM in soil, 8 weeks
Experimental: For the infectivity assays, 90 grams of soil (1:1 sand:loam mix) was added to each cell of several 6-cell plastic garden packs. The soil was drenched with 18 mL of deionized water containing dissolved test compound or DMSO alone. 2,500 infective J2 juveniles were then added to the soil in 2 mL of deionized water, for a total water volume of 20 mL. […] The DMSO concentration varied from 0.1% to 0.8% (v/v) depending on the stock concentration of the test compound. The highest DMSO concentration was used as the DMSO control. The J2s were incubated in the soil and chemical for 24 hours, after which two- to three-week old tomato seedlings were transplanted into the soil (one plant per cell). Two replicates were performed for each chemical treatment, and four replicates were done for the DMSO controls. The whole experiment was replicated twice, in two different batches on two different days, for a total of four replicates for each test compound treatment, and eight replicates for the DMSO controls. Inoculated plants were grown for 8 weeks in a greenhouse, as described^47, under long-day conditions (16-h photoperiod) with 26/18° C. day/night temperatures. After 8 weeks, the plants were destructively harvested. The tops were removed and discarded, and roots were gently washed with water to remove adhering soil. Eggs were extracted by placing rinsed roots in 0.6% sodium hypochlorite and agitating at 300 rpm for 3 min. Roots were then rinsed over nested 250—and 25.4-μm sieves, with eggs collected from the latter and suspended in water. Roots were dried in a 65° C. oven for at least 24 hours, after which dry roots were weighed. The number of eggs from each plant root was counted on a dissection microscope using a haemocytometer, and the number of eggs per milligram of root was calculated by dividing the total egg number by the mass of the dried root material. An average was taken across the replicates performed on the same day, and then normalized to the DMSO control average. […] An average percent effectiveness value was then calculated across the two different batches carried out on different days.

M. incognita J2 larvae = assay: Meloidogyne incognita in vitro larval mobility assay; type: in vivo; conditions: 45 μM, 4 days; for Replicate 1 z-score / Replicate 2 z-score: z-score vs untreated DMSO wells; for pest or weed control at 45 µM: Meloidogyne incognita, 96 h
Experimental: M. incognita (Kofoid & White) Chitwood Race 1 (originally isolated in Maryland) was used for all experiments, and was maintained on pepper (Capsicum annuum L.) cv. PA-136 in a greenhouse as previously described^44. Infective J2 juveniles were collected as described in ref. 45. The microwell dose-response experiments were carried out similarly to previously described protocols^44,46. In brief, 50 μL of deionized water was added to the wells of 96-well polystyrene plates and 0.5 μL of test compound (or DMSO alone) was added to each well. Approximately 35 J2s were then added to each well in 49.5 μL of deionized water. The chemicals were tested at 45 μM, and the final concentration of DMSO in each well was 0.5% (v/v). DMSO alone was added to 3 separate wells. The plates were covered with plastic adhesive strips, and the lids of the plates were sealed with parafilm. The plates were incubated at 25° C. without shaking for 4 days. The percent of worms that were immobile (% immobile) was quantified by counting the number of immobile worms after 4 days of incubation, dividing the number of immobile worms by the total number of worms in the well, and then multiplying by 100. Two replicates were performed for each treatment. The z-score for each treatment was calculated using the mean and standard deviation of the untreated DMSO control wells. The average % immobile value was calculated across the two replicates. A test compound was considered most promising if the z-score was greater than 1.645 in both replicates.

M. chitwoodi J2 larvae = assay: Meloidogyne chitwoodi in vitro larval mobility assay; type: in vivo; conditions: Meloidogyne chitwoodi, 48 h, 2 days, average of three replicates, read-out: % Immobile
Experimental: M. chitwoodi race 1 (the strain commonly found in the pacific northwest of the United States) was used for all experiments, and was maintained on tomato plants (Solanum lycopersicum ‘Rutgers’) as previously described^47. The microwell dose-response experiments were carried out similarly to previously described protocols^44,46. […] The chemicals were tested at 45 μM, and the final concentration of DMSO in each well was 0.5% (v/v). The wells were covered with a plastic adhesive strip, and the lids of the plates were sealed with parafilm. The plates were incubated at 25° C. for 2 days. The percent of worms that were immobile (% immobile) was quantified by counting the number of immobile worms after 2 days of incubation, dividing the number of immobile worms by the total number of worms in the well, and then multiplying by 100. […] The average % immobile value was calculated across the three replicates.

[1] = lowest concentration at which at least 20% of worms die, read-out: Minimum Lethal Concentration
[2] = same values in ppm, read-out: Minimum Lethal Concentration (ppm)
[3] = average of the two replicates, read-out: Average % Immobile
[4] = replicate 1, read-out: Replicate 1 % Immobile
[5] = replicate 2, read-out: Replicate 2 % Immobile

Row | Compound | minimal effective concentration (C. elegans; [1]) [µM] | minimal effective concentration (C. elegans; [2]) [µg/mL] | Number of Hatched Eggs (M. hapla eggs) | Number of Hatched Eggs z-score (M. hapla eggs) | pest or weed control at 45 µM (M. incognita) [%] | Normalized root mass (relative to DMSO control) (tomato plants) | Replicate 1 z-score (M. incognita J2 larvae; replicate 1) | Replicate 2 z-score (M. incognita J2 larvae; replicate 2) | pest or weed control at 45 µM (M. incognita J2 larvae; [3]) [%] | pest or weed control at 45 µM (M. incognita J2 larvae; [4]) [%] | pest or weed control at 45 µM (M. incognita J2 larvae; [5]) [%] | pest or weed control at 45 µM (M. chitwoodi J2 larvae) [%]
1 | Cc1c(-c2cccc(Br)c2)nc2sccn12 [I-35] | > 50 | 14.7 | 2 | [3.97] | 10.2 | 1.26 | – | – | – | – | – | –
2 | c1cncc(-c2cn3ccsc3n2)c1 [I-45] | > 100 | > 20.1 | – | – | – | – | [1.92] | [3.20] | 29.8 | 32.1 | 27.4 | 13.8
3 | Cc1cn2cc(-c3cccc(F)c3)nc2s1 [I-17] | 100 | 23.2 | 3 | [3.64] | 21.8 | 1.30 | – | – | – | – | – | –
4 | Cc1cn2cc(-c3ccccc3Br)nc2s1 [I-41] | > 100 | > 29.3 | – | – | 6.6 | 1.18 | [3.31] | [6.62] | 42.6 | 38.9 | 46.3 | –
5 | Clc1ccc(-c2cn3ccoc3n2)cc1 [I-47, 6-(4-chlorophenyl)imidazo[2,1-b]oxazole] | 50 | 10.9 | 1 | [4.30] | – | – | [14.96] | [15.52] | – | 95.9 | 95.6 | 62.7
6 | Cc1cn2cc(-c3ccccc3Cl)nc2s1 [I-30] | > 100 | > 24.9 | – | – | 16 | 1.30 | [8.34] | [5.62] | 52.1 | 63.5 | 40.8 | –
7 | Cc1c(-c2cccc(Cl)c2)nc2sccn12 [I-24] | 100 | 24.9 | – | – | 23.6 | 1.34 | [1.68] | [4.78] | 33.6 | 30.9 | 36.2 | –
8 | O=C(NCCc1ncc(C(F)(F)F)cc1Cl)c1ccccc1C(F)(F)F [Fluopyram, fluopyram, reference compound] | – | – | 0 | [4.63] | – | – | [14.82] | [21.99] | 100 | 100 | 100 | 100
9 | Clc1ccccc1-c1cn2ccsc2n1 [I-27] | 100 | 23.5 | 4 | [3.31] | 0 | 1.42 | [6.81] | [3.28] | 42 | 56 | 27.9 | –
10 | Clc1ccc(-c2cn3ccsc3n2)cc1Cl [I-31] | 6.25 | 1.7 | 1 | [4.30] | 18.1 | 1.25 | [2.33] | [4.78] | 35.1 | 34.1 | 36.2 | –
11 | Cc1cn2cc(-c3ccccc3F)nc2s1 [I-21] | 50 | 11.6 | – | – | 24.4 | 1.24 | [5.78] | [5.62] | 45.9 | 51 | 40.8 | –
12 | Cc1csc2nc(-c3cccc(Cl)c3)cn12 [I-25] | > 100 | > 24.9 | 4 | [3.31] | 24.6 | 1.27 | – | – | – | – | – | –
13 | Cc1c(-c2ccccc2)nc2sccn12 [I-1] | > 100 | > 21.4 | – | – | – | – | – | – | – | – | – | 48.2
14 | Cc1c(-c2ccc(Cl)cc2)nc2sccn12 [I-22] | 12.5 | 3.1 | 1 | [4.30] | – | – | [7.55] | [4.26] | 46.5 | 59.6 | 33.3 | > 75
15 | Cc1csc2nc(-c3ccccc3Cl)cn12 [I-29] | 100 | 24.9 | 4 | [3.31] | 15 | 1.14 | – | – | – | – | – | –
16 | Fc1cccc(-c2cn3ccsc3n2)c1 [I-14] | 100 | 21.8 | 1 | [4.30] | 17.6 | 1.28 | [15.43] | [13.11] | ≥ 75 | 98.2 | 82.2 | –
